{"source": "paper PMC9646721", "about": "“Alkaloid binding to opium poppy major latex proteins triggers structural modification and functional aggregation” (Nature Communications, 2022)", "key": {"[1]": {"target": "THS2 (Papaver somniferum, UniProt A0A2U9GGW3)", "sequence (A0A2U9GGW3 whole entry)": "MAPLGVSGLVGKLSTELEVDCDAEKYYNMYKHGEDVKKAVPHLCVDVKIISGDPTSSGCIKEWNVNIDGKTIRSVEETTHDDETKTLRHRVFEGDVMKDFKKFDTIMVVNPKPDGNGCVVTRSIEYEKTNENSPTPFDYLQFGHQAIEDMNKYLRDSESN", "assay": "ANS displacement assay", "settings": "for IC50: IC50, THS2; for IC50 / Log10IC50: 10 µM protein and 10 µM ANS, CBS pH 5.5; for Log10IC50 / Hill Slope: THS2; for Hill Slope: ANS displacement dose-response fit", "procedure": "(§4) 8-anilino-1-naphthalenesulfonic acid (ANS) fluorescence binding curves and the binding-induced reduction in ANS fluorescence resulting from competition with tested ligands across a range of concentration facilitated the measurement of IC50 and an estimate of Kd values using the binding models and procedures described previously[70]. […] ANS was dissolved in dimethylsufoxide at a concentration of 20 mM, stored at −20 °C until dilution and protected from exposure to light. […] 40 µl of the ANS solution and 40 µl of each MLP/PR10 protein solution were combined to 80 µl final reaction volumes, which were incubated at 21 °C for 10 min to allow equilibration of binding. Triplicate 18-µl aliquots were withdrawn from each 80 µl reaction, transferred to optically clear PCR tubes (Diamed, Canada) and ANS fluorescence was measured following an additional 3-min incubation at 30 °C using a Qiagen Rotor-gene Q 6-plex with excitation and emission filters of 365 ± 20 nm and 460 ± 20 nm, respectively. An identical reaction series whereby protein was omitted from the mixtures was measured under identical conditions and trace fluorescence was subtracted from each MLP/PR10 protein-containing sample. Each data set was scaled so that the maximum observed fluorescence corresponded to 100% and individual data points were plotted, and a rectangular hyperbolic ligand binding function was fit, using least-squares analysis (Prism 5 software, Graphpad, USA). Experiments were repeated at least twice with independently prepared protein.\n(§5) Displacement of ANS is associated with reduced fluorescence. […] Briefly, 40 µl of 20 µM ANS and individual MLP/ PR10 protein solutions were combined in CBS buffer, pH 5.5, incubated at 21 °C for 5 min, mixed with 40 µl of separate 0 to 6 mM BIA solutions in CBS buffer, pH 5.5, and the 80 µl reactions were subsequently incubated for 10 min at 21 °C. Fluorescence was measured as described above, including subtraction of any fluorescence in a blank series whereby protein was omitted. […] Each experiment was repeated at least twice with independently prepared MLP/PR10 proteins and BIA ligand."}, "[2]": {"target": "T1, PR10-10 (Papaver somniferum, UniProt A0A9Y2YA81)", "T1 sequence (A0A9Y2YA81 1-158)": "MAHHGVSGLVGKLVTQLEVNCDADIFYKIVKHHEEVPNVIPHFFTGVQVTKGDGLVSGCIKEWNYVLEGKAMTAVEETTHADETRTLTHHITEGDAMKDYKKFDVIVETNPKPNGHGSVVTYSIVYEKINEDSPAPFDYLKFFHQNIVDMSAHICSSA", "assay": "ANS displacement assay", "format": "binding", "settings": "ANS displacement dose-response fit", "excerpt": "(§1) Eluates were store separately on ice.\n(§2) Displacement of ANS is associated with reduced fluorescence."}, "[3]": {"target": "NISO (Papaver somniferum, UniProt P0DYP9)", "sequence (P0DYP9 entry or part of it)": "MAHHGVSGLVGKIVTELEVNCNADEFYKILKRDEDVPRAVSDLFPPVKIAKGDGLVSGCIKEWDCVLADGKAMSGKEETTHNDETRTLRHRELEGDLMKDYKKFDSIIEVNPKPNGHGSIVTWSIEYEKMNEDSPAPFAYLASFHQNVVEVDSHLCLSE", "assay": "ANS displacement assay", "settings": "for IC50: IC50, NISO; for IC50 / Log10IC50: 10 µM protein and 10 µM ANS, CBS pH 5.5; for Log10IC50 / Hill Slope: NISO; for Hill Slope: ANS displacement dose-response fit", "procedure": "as §4, §5"}, "[4]": {"assay": "Ligand solubility threshold in ITC buffer", "format": "physicochemical", "settings": "filtered dialysis buffer (CBS, 21 °C, aqueous buffer, thermodynamic from solid); pH 5.5, ITC buffer", "protocol": "ITC experiments were conducted using a Microcal VP instrument (Malvern Pananalytical, Malvern, UK). Recombinant MLP/PR10 protein preparation involving production in Escherichia coli followed by cobalt-affinity chromatography was optimized to yield relatively high purity in a single step as determined by SDS-PAGE and colloidal Coomassie blue silver staining. The less than 48 h decrease in atmospheric oxygen exposure generated high-quality proteins with reduced precipitate. […] Eluates were twice dialysed to equilibrium (i.e., 10–12 h at 4 °C) against a 1000-fold (2–4 L) volume of PBS, pH 7.4 (25 mM sodium phosphate, 50 mM NaCl) or CBS, pH 5.5, resulting in a theoretical million-fold dilution of undesired small molecules (e.g., <0.2 µM imidazole). […] Any precipitate was separated from the remaining soluble protein fraction which was quantified by absorption at A280nm and diluted with filtered dialysis buffer immediately before use.\nThermograms were recorded at 25 °C, with a reference power of 10 (dpu/sec) and monitoring of 30 injections of 9 µl BIA ligand solutions into a sample cell containing 1.4 ml of an MLP/PR10 protein solution, with 300 seconds between injections. […] After subtraction, binding isotherms were analyzed in MicroCal Origin 7 (MicroCal, USA) by fitting a single-site binding model using non-linear least squares regression analysis repeated until convergence. […]"}, "[5]": {"target": "MLP2", "assay": "ANS displacement assay", "format": "binding, Papaver somniferum", "settings": "for IC50 / Log10IC50: 10 µM protein and 10 µM ANS, CBS pH 5.5; for Kd: from average IC50 and PR10-ANS Kd, competitive inhibition assumed, read-out: Estimated Kd", "excerpt": "as §1, §2"}, "[6]": {"target": "PR10-12", "assay": "ANS displacement assay", "format": "binding, Papaver somniferum", "settings": "for IC50 / Log10IC50: 10 µM protein and 10 µM ANS, CBS pH 5.5; for Kd: from average IC50 and PR10-ANS Kd, competitive inhibition assumed, read-out: Estimated Kd", "excerpt": "as §1, §2"}, "[7]": {"target": "PR10-4", "assay": "ANS displacement assay", "format": "binding, Papaver somniferum", "settings": "for IC50 / Log10IC50: 10 µM protein and 10 µM ANS, CBS pH 5.5; for Kd: from average IC50 and PR10-ANS Kd, competitive inhibition assumed, read-out: Estimated Kd", "excerpt": "as §1, §2"}, "[8]": {"target": "T2, MLP15 (Papaver somniferum, UniProt P19825)", "T2 sequence (P19825 1-159)": "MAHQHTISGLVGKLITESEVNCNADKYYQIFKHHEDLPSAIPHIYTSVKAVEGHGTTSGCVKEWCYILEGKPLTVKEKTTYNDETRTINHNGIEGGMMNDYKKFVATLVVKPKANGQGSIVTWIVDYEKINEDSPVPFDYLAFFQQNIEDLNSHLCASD", "assay": "ANS displacement assay", "settings": "for IC50: IC50, MLP15; for IC50 / Log10IC50: 10 µM protein and 10 µM ANS, CBS pH 5.5; for Log10IC50 / Hill Slope: MLP15; for Hill Slope: ANS displacement dose-response fit", "procedure": "as §4, §5"}, "[9]": {"target": "T1, PR10-10", "assay": "Isothermal titration calorimetry", "format": "binding", "settings": "for Kd: ITC", "protocol": "ITC experiments were conducted using a Microcal VP instrument (Malvern Pananalytical, Malvern, UK). […] Eluates were twice dialysed to equilibrium (i.e., 10–12 h at 4 °C) against a 1000-fold (2–4 L) volume of PBS, pH 7.4 (25 mM sodium phosphate, 50 mM NaCl) or CBS, pH 5.5, resulting in a theoretical million-fold dilution of undesired small molecules (e.g., <0.2 µM imidazole). Dialysis was carried out in boiled Spectra/Por 1 6–8 kDa MWCO 0.32 ml/cm (Spectrum Labs, USA) tubing thoroughly washed with either buffer before use. The second 1000-fold volume of dialysis buffer was filtered and degassed using a reusable bottle-top filtration apparatus (Nalgene, USA) with disposable […] cellulose filters (VWR, Canada) prior to storage at 4 °C. Ligands were dissolved in the filtered dialysis buffer at 21 °C for approximately one hour, and any insoluble material was removed by repeated centrifugation at 21,000 × g for 10 min. […] Prior to ITC, which was initiated immediately following dialysis, the protein solutions were centrifuged at 17,000 × g and 4 °C for 30 min. Any precipitate was separated from the remaining soluble protein fraction which was quantified by absorption at A280nm and diluted with filtered dialysis buffer immediately before use.\n(§3) Thermograms were recorded at 25 °C, with a reference power of 10 (dpu/sec) and monitoring of 30 injections of 9 µl BIA ligand solutions into a sample cell containing 1.4 ml of an MLP/PR10 protein solution, with 300 seconds between injections. […] To ensure that we report only the heat of reaction for each interaction, independent titrations of ligand into buffer, and buffer into protein solutions, were used to calculate and then subtract heats of dilution. After subtraction, binding isotherms were analyzed in MicroCal Origin 7 (MicroCal, USA) by fitting a single-site binding model using non-linear least squares regression analysis repeated until convergence. […] Each ITC experiment was repeated 2 to 4 times."}, "[10]": {"assay": "Sucrose density-gradient fractionation of Przemko latex with exogenous alkaloid", "parameters": "species or system Papaver somniferum", "settings": "exogenous alkaloid (420-460 mM) added to 80 µL Przemko latex, 14-66% sucrose gradient", "procedure": "Sucrose solutions (66%, 58%, 46%, 38%, 30%, 24 and 14% [w/v]) were prepared in 50 mM HEPES, pH 7.0, containing 5 mM EDTA. Continuous sucrose density gradients were prepared by layering the solutions (3 mL of 66, 58 and 46%, 6 mL of 38%, and 7 mL of 30, 24 and 14% [w/v] sucrose) in 38-mL thin-wall ultracentrifuge tubes (Beckman Coulter, USA) followed by equilibration at 4 °C for 24 h. Fresh latex (80 µL) was collected from decapitated unripe seed capsules in 1.5-mL microcentrifuge tubes and stored on ice for immediate loading on the sucrose gradients. […] Samples were incubated on ice for 30 min then diluted in 2 mL of latex suspension buffer (500 mM mannitol, 50 mM HEPES, pH 7.0, 5 mM EDTA, 1 mM PMSF) and layered onto sucrose density gradients, which were then centrifuged in an AH-629 rotor (Sorvall, USA) for 3 h at 100,000 × g at 4 °C. The bottom of the ultracentrifuge tube was punctured by a flame-heated 21 G needle and a total of 22 fractions (~1.7 mL) were collected manually. The refractive index of each fraction was measured by a digital refractometer (Reichert, USA) and converted to density. Protein concentration was determined by Bradford assay (BioRad, USA) and samples were stored at −80 °C until use."}, "[11]": {"target": "T2, MLP15", "assay": "Isothermal titration calorimetry", "format": "binding", "parameters": "made in house; host or cells: E. coli ArcticExpress (DE3)", "settings": "ITC thermogram, injections into buffer and MLP15", "protocol": "ITC experiments were conducted using a Microcal VP instrument (Malvern Pananalytical, Malvern, UK). […] Dialysis was carried out in boiled Spectra/Por 1 6–8 kDa MWCO 0.32 ml/cm (Spectrum Labs, USA) tubing thoroughly washed with either buffer before use. The second 1000-fold volume of dialysis buffer was filtered and degassed using a reusable bottle-top filtration apparatus (Nalgene, USA) with disposable […] cellulose filters (VWR, Canada) prior to storage at 4 °C. Ligands were dissolved in the filtered dialysis buffer at 21 °C for approximately one hour, and any insoluble material was removed by repeated centrifugation at 21,000 × g for 10 min. […] Prior to ITC, which was initiated immediately following dialysis, the protein solutions were centrifuged at 17,000 × g and 4 °C for 30 min. Any precipitate was separated from the remaining soluble protein fraction which was quantified by absorption at A280nm and diluted with filtered dialysis buffer immediately before use.\nas §3"}, "[12]": {"settings": "CBS pH 5.5, printed in brackets beside *, read-out: Kd (estimate, low enthalpy system)"}}, "note": "Several values for one entry are separate records, joined by “and”; a condition that tells them apart may be missing. Identical values can stand only once. Like-named read-outs stand apart in the source and are kept apart here.", "data": [{"compound": "COc1ccc(Cc2nccc3cc(OC)c(OC)cc23)cc1OC", "note": "[Papaverine, papaverine]", "values": [{"measurement": "Kd", "setting": "[1]", "result": 333, "unit": "µM"}, {"measurement": "IC50", "setting": "[1]", "result": 493, "unit": "µM"}, {"measurement": "Log10IC50", "setting": "[1]", "result": "2.69 ± 0.71"}, {"measurement": "Hill Slope", "setting": "[1]", "result": "-0.88 ± 0.34"}, {"measurement": "Hill Slope", "setting": "[2]", "result": "-0.36 ± 0.27"}, {"measurement": "Kd", "setting": "[3]", "result": 82, "unit": "µM"}, {"measurement": "IC50", "setting": "[3]", "result": "96 µM and 95.5 µM"}, {"measurement": "Log10IC50", "setting": "[3]", "result": "1.98 ± 0.05"}, {"measurement": "Hill Slope", "setting": "[3]", "result": "-1.20 ± 0.05"}, {"measurement": "solubility", "setting": "[4]", "result": 1200, "unit": "µM"}, {"measurement": "IC50", "setting": "[5]", "result": 61.4, "unit": "µM"}, {"measurement": "Log10IC50", "setting": "[5]", "result": "1.79 ± 0.07"}, {"measurement": "Kd", "setting": "[5]", "result": 45.5, "unit": "µM"}, {"measurement": "IC50", "setting": "[6]", "result": 158, "unit": "µM"}, {"measurement": "Log10IC50", "setting": "[6]", "result": "2.20 ± 0.09"}, {"measurement": "Kd", "setting": "[6]", "result": 154, "unit": "µM"}, {"measurement": "IC50", "setting": "[7]", "result": 41.7, "unit": "µM"}, {"measurement": "Log10IC50", "setting": "[7]", "result": "1.62 ± 0.05"}, {"measurement": "Kd", "setting": "[7]", "result": 38.1, "unit": "µM"}, {"measurement": "Kd", "setting": "[8]", "result": 265, "unit": "µM"}, {"measurement": "IC50", "setting": "[8]", "result": 299, "unit": "µM"}, {"measurement": "Log10IC50", "setting": "[8]", "result": "2.48 ± 0.08"}, {"measurement": "Hill Slope", "setting": "[8]", "result": "-1.21 ± 0.08"}, {"measurement": "heat change of protein-ligand interaction after subtraction of the blank", "setting": "[9]; ITC thermogram, pH 5.5", "result": -0.2, "unit": "µcal/s"}, {"measurement": "Kd", "setting": "[9]; CBS buffer, Fig. 4b prints no unit, read-out: Kd", "result": "~225", "unit": "µM"}, {"measurement": "Kd", "setting": "[9]; [12]", "result": 225, "unit": "µM"}, {"measurement": "formation of dense aggregate bands in gradient", "setting": "[10]", "result": "one or more visibly insoluble dense aggregate bands"}]}, {"compound": "COc1ccc2c(c1OC)C(=O)O[C@@H]2[C@H]1c2c(cc3c(c2OC)OCO3)CCN1C", "note": "[Noscapine, noscapine]", "values": [{"measurement": "Kd", "setting": "[1]", "result": "~9.66", "unit": "µM"}, {"measurement": "IC50", "setting": "[1]", "result": "14 µM and ~14.3 µM"}, {"measurement": "Log10IC50", "setting": "[1]", "result": "~ 1.16 ± 0.48"}, {"measurement": "Hill Slope", "setting": "[1]", "result": "~ -1.13 ± 0.78"}, {"measurement": "Kd", "setting": "[3]", "result": 56.7, "unit": "µM"}, {"measurement": "IC50", "setting": "[3]", "result": "66 µM and 66.1 µM"}, {"measurement": "Log10IC50", "setting": "[3]", "result": "1.82 ± 0.07"}, {"measurement": "Hill Slope", "setting": "[3]", "result": "-5.05 ± 6.55"}, {"measurement": "solubility", "setting": "[4]", "result": 1100, "unit": "µM"}, {"measurement": "endothermic positive peaks during the initial injections", "setting": "[11]", "result": "> 0.2", "unit": "µcal/s"}, {"measurement": "exothermic heat-change plateau of the final injections", "setting": "[11]", "result": -0.48, "unit": "µcal/s"}, {"measurement": "IC50", "setting": "[5]", "result": "~40.4", "unit": "µM"}, {"measurement": "Log10IC50", "setting": "[5]", "result": "~ 1.61 ± 0.07"}, {"measurement": "Kd", "setting": "[5]", "result": "~29.9", "unit": "µM"}, {"measurement": "IC50", "setting": "[6]", "result": "~4.18", "unit": "µM"}, {"measurement": "Log10IC50", "setting": "[6]", "result": "~ 0.62 ± 0.17"}, {"measurement": "Kd", "setting": "[6]", "result": "~4.07", "unit": "µM"}, {"measurement": "IC50", "setting": "[7]", "result": "~126", "unit": "µM"}, {"measurement": "Log10IC50", "setting": "[7]", "result": "~ 2.102 ± 0.59"}, {"measurement": "Kd", "setting": "[7]", "result": "~116", "unit": "µM"}, {"measurement": "Kd", "setting": "[8]", "result": 37.8, "unit": "µM"}, {"measurement": "IC50", "setting": "[8]", "result": "43 µM and 42.6 µM"}, {"measurement": "Log10IC50", "setting": "[8]", "result": "1.63 ± 0.04"}, {"measurement": "Hill Slope", "setting": "[8]", "result": "-1.18 ± 0.10"}]}, {"compound": "COc1cc2c(cc1OC)[C@@H]1Cc3ccc(OC)c(OC)c3CN1CC2", "note": "[Tetrahydropalmatine]", "values": [{"measurement": "Kd", "setting": "[9]; [12]", "result": "180 ± 133", "unit": "µM"}]}]}
